Here are results for three compounds from patent US20250064899A1, “USE OF THE 15-LIPOXYGENASE FOR THE TREATMENT OF LYMPHEDEMA” (INSERM (INSTITUT NATIONAL DE LA SANTÉ ET DE LA RECHERCHE …, priority 2022, published 2025).

Entries after “also recorded” stand apart in the source; their conditions may differ.

In series [1] the target is T1, 15-LOX (Mus musculus, UniProt P39654).
T1 construct: from tissue; host or cells: living C57BL/6J mice (lymphedematous limb)
T1 sequence (P39654 1-663): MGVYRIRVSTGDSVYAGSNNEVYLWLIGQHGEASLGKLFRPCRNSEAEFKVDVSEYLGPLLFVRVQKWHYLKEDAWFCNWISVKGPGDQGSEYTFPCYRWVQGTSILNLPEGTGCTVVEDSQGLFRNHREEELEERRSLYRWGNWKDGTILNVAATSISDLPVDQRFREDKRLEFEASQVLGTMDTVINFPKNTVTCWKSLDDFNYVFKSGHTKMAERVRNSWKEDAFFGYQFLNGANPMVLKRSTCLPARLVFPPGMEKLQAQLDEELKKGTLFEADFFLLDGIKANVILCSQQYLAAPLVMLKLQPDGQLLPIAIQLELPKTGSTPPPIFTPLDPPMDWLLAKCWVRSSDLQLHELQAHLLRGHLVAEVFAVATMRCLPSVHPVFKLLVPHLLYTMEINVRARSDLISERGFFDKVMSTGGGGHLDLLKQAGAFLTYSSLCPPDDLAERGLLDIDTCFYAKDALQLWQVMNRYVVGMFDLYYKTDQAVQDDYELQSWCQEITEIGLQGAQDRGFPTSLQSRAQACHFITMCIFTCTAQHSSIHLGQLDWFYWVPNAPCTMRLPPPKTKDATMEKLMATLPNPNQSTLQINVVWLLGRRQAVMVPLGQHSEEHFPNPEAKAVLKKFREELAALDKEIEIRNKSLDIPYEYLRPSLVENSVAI
Put plainly: 15-LOX inhibitor in mouse model of lymphedema. It counts as in vivo. To be noted: in presence of 15-LOX inhibitor. Here is the method: Mice were housed in individually ventilated cages in a temperature and light regulated room in a SPF facility and received food and water ad libitum. Female C57BL/6J (6 weeks old) were obtained from Janvier (Le Genest Saint Isle, France). Mouse model of lymphedema was performed as previously described (Morfoisse ATVB 2008).
To understand the molecular mechanisms underlying the inflammatory process in lymphedema, we performed a time course analysis of the adipose tissue in a mouse model of lymphedema (not shown). […] In early stages of LD (2 weeks post surgery), no significant difference in lipid content was observed (data not shown). In contrast, in acquired lymphedema (8 weeks post-surgery), we found similar pattern as those observed in human tissue samples (data not shown). In particular, we observed a decrease in AA-derived lipid mediators generated by 15-LOX (15-HETE) whereas no difference was found in lipids generated by DHA metabolism (17-HDOHE) (data not shown). After eight weeks of LD, we observed that changes in pro-resolvin content was associated with a decrease in 15-LOX mRNA and protein expression (data not shown). Importantly, the downregulation of 15-LOX was also observed in the lymphatic endothelium (data not shown).
To evaluate the role of 15-LOX in LD, we used the PD146176 pharmacological inhibitor. […] As we previously shown that Tcell populations were recruited during LD development, we next performed flow cytometry analysis. We observed in the presence of 15-LOX inhibitor an increase in CD4+ Tcells during LD associated with a decrease in Treg recruitment (data not shown). This was confirmed by a decrease of Tregs (Foxp3 positive cells) immunodetection in lymphedematous tissues (data not shown).

The test system of series [2] is lymphatic monolayer. Conditions: literature reference 17; cited from earlier work.
Series [3] has as its system LEC (lymphatic endothelium). Put plainly: effect of 15-HETE on the cultured LEC. It counts as cell-based. From the text: To decipher the role of 15-Lox lipid derived mediators, we studied the effect of 15-HETE on the cultured LEC. We identified a direct effect of 15 HETE on the lymphatic endothelium. It promoted Tcells adhesion to the lymphatic monolayer (data not shown), had no effect on LEC proliferation (data not shown), but stimulated their migration (data not shown).

`c1ccc2c(c1)SCc1c-2[nH]c2ccccc12` [PD146176]: in series [1] (flow cytometry), the “CD4+ Tcells during LD” value was “increase” and the Treg recruitment entry is “decrease”. The “Tregs (Foxp3 positive cells) immunodetection in lymphedematous tissues” value in series [1] is “decrease”. In series [1] (mouse model of lymphedema), the LD swelling result is given as “increased”, the dermal backflow entry was “strong dermal backflow” and the dermal fibrosis result is “associated with dermal fibrosis”.
`CCCCC/C=C\C[C@H](O)/C=C/C=C\C/C=C\CCCC(=O)O` [12-HETE]: the “effect on the lymphatic monolayer” value in series [2] was “generates holes in the lymphatic monolayer”.
Consider `CCCCC[C@H](O)/C=C/C=C\C/C=C\C/C=C\CCCC(=O)O` [15-HETE, 15-hydroxyeicosatetraenoic acid], for which the “deleterious effect / damages on the lymphatic endothelium” value in series [3] (compared to 12-HETE) is “no deleterious effect; also recorded: did not cause lymphatic damages”. Moreover, the LEC proliferation result in series [3] (cultured LEC) was “no effect”.
